Test results taken from ChEMBL document CHEMBL5052852, “Substituted hydantoinamides as adamts7 antagonists” (2021).

Columns and labels:
[1] = Inhibition of recombinant rat/human ADAMTS7 hybrid using HiLyteFluor-488 DELSSMVLELRGLRT-K(QXL520)-E-NH2 as substrate incubated for 120 mins and measured by FRET assay
[2] = Inhibition of recombinant rat/human ADAMTS12 hybrid using HiLyteFluor-488 DELSSMVLELRGLRT-K(QXL520)-E-NH2 as substrate incubated for 120 mins and measured by FRET assay

| SMILES | IC50 [1] [nM] | IC50 [2] [nM] |
| --- | --- | --- |
| O=C1NC(=O)[C@](CNC(=O)c2cnc(-c3ccccc3)o2)(C2CC2)N1 | 550 | 11300 |
| O=C1NC(=O)[C@](CNC(=O)c2cnn(-c3cccc(F)c3F)n2)(C2CC2)N1 | 74 | 3100 |
| O=C1NC(=O)C(CNC(=O)c2cnn(-c3ccc(F)c(F)c3)n2)(C2CCC2)N1 (stereo unspecified) | 6 | 890 |
| O=C1NC(=O)[C@](CNC(=O)c2cnn(-c3ccc(F)c(F)c3)n2)(C2CC2)N1 | 7 | 175 |
| CC(C)C1(CNC(=O)c2cnn(-c3ccccc3)n2)NC(=O)NC1=O (stereo in doubt) | 76 | 10000 |
| Cn1ccnc1C1(CNC(=O)c2cnn(-c3ccc(F)c(F)c3)n2)NC(=O)NC1=O (stereo unspecified) | 3 | 46 |
| CCCC1(CNC(=O)c2cnn(-c3ccc(F)cc3)n2)NC(=O)NC1=O (stereo in doubt) | 60 | 5100 |
| O=C1NC(=O)[C@](CNC(=O)c2cnn(-c3ccc(F)cc3Cl)n2)(C2CC2)N1 | 320 | 17000 |
| O=C1NC(=O)[C@](CNC(=O)c2cnn(-c3ncccc3F)n2)(C2CC2)N1 | 7 | 14000 |
| CCCCC1(CNC(=O)c2cnn(-c3ccc(F)cc3)n2)NC(=O)NC1=O (stereo in doubt) | 48 | 3100 |
| O=C1NC(=O)[C@](CNC(=O)c2cnn(-c3cnccn3)n2)(C2CC2)N1 | 355 | 24000 |
| O=C1NC(=O)C(CNC(=O)c2cnn(-c3ccc(F)cc3)n2)(C2CCC2)N1 (single isomer, unassigned) | 24 | 4380 |
| O=C1NC(=O)C(CNC(=O)c2cnn(-c3ccc(F)cc3)n2)(C2CCOCC2)N1 (stereo in doubt) | 37 | 1500 |
| CC(C)C1(CNC(=O)c2cnn(-c3ccc(Cl)c(F)c3)n2)NC(=O)NC1=O (racemic) | 13 | 2800 |
| CCCCC1(CNC(=O)c2cnn(-c3ccc(F)cc3)n2)NC(=O)NC1=O (racemic) | 120 | 8300 |
| CCC(C)C1(CNC(=O)c2cnn(-c3ccc(F)cc3)n2)NC(=O)NC1=O (stereo in doubt; form 2) | 37 | 1000 |
| O=C1NC(=O)C(CNC(=O)c2cnn(-c3ccccc3)n2)(C2CCCC2)N1 (stereo in doubt) | 120 | 11000 |
| CC(C)(C)C1(CNC(=O)c2cnn(-c3ccc(C(F)(F)F)c(F)c3)n2)NC(=O)NC1=O (racemic) | 210 | 50000 |
| CCCCC1(CNC(=O)c2cnn(-c3ccccc3)n2)NC(=O)NC1=O (stereo in doubt) | 191 | 19000 |
| O=C1NC(=O)C(CNC(=O)c2cnn(-c3ccc(Cl)c(F)c3)n2)(c2nccs2)N1 (racemic) | 19 | 1100 |
| O=C1NC(=O)C(CNC(=O)c2cnn(-c3ccccc3)n2)(C2CCCOC2)N1 (stereo in doubt; form 1) | 150 | 4000 |
| O=C1NC(=O)C(CNC(=O)c2cnn(-c3ccccc3)n2)(C2CCC2)N1 (racemic) | 55 | 14000 |
| CC(C)(C)C1(CNC(=O)c2cnn(-c3ccc(C(F)(F)F)cc3)n2)NC(=O)NC1=O (racemic) | 620 | 50000 |
| Cn1cc(-c2cc(C(=O)NC[C@@]3(C4CC4)NC(=O)NC3=O)on2)cn1 | 52 | 4690 |

| SMILES | IC50 [1] [nM] | IC50 [2] [nM] |
| --- | --- | --- |
| O=C1NC(=O)[C@](CNC(=O)c2cnn(-c3ccccc3)c2)(C2CC2)N1 | 129 | 1800 |
| CS(=O)(=O)c1ccc(-n2ncc(C(=O)NC[C@@]3(C4CC4)NC(=O)NC3=O)n2)cc1 | 870 | 67000 |
| CC(C)C1(CNC(=O)c2cnn(-c3ccc(F)c(Cl)c3)n2)NC(=O)NC1=O (stereo unspecified) | 190 | 12000 |
| N#Cc1ccc(-n2ncc(C(=O)NC[C@@]3(C4CC4)NC(=O)NC3=O)n2)cc1 | 40 | 17000 |
| O=C1NC(=O)C(CNC(=O)c2cnn(-c3ccccc3)n2)(C2CCOCC2)N1 (racemic) | 128 | 9950 |
| O=C1NC(=O)C(CNC(=O)c2cnn(-c3ccc(F)c(Cl)c3)n2)(c2nccs2)N1 (stereo in doubt) | 14 | 780 |
| O=C1NC(=O)C(CNC(=O)c2cnn(-c3ccccc3)n2)(c2ccccn2)N1 (racemic) | 26 | 4800 |
| O=C1NC(=O)C(CNC(=O)c2cnn(-c3ccccc3)n2)(C2CCCC2)N1 (racemic) | 191 | 50000 |
| O=C1NC(=O)C(CNC(=O)c2cnn(-c3ccc(F)cc3)n2)(c2nccs2)N1 (stereo in doubt) | 15 | 1400 |
| O=C1NC(=O)C(CNC(=O)c2cnn(-c3cccc(F)c3)n2)(c2nccs2)N1 (racemic) | 12 | 600 |
| O=C1NC(=O)C(CNC(=O)c2cnn(-c3ccc(F)cc3)n2)(c2cscn2)N1 (stereo unspecified) | 12 | 2500 |
| Cc1ccc(-n2ncc(C(=O)NC[C@@]3(C4CC4)NC(=O)NC3=O)n2)cc1 | 47 | 950 |
| CC1(CNC(=O)c2cnn(-c3ccc(F)cc3)n2)NC(=O)NC1=O (racemic) | 560 | 5000 |
| O=C1NC(=O)C(CNC(=O)c2cnn(-c3ccccc3)n2)(C2CCOC2)N1 (racemic) | 170 | 22000 |
| Cn1ccnc1C1(CNC(=O)c2cnn(-c3ccc(Cl)c(F)c3)n2)NC(=O)NC1=O (stereo unspecified) | 2 | 41 |
| CC(C)(C)C1(CNC(=O)c2cnn(-c3cccc(F)c3)n2)NC(=O)NC1=O (racemic) | 260 | 6600 |
| O=C1NC(=O)[C@](CNC(=O)c2cnn(-c3ccc(Cl)cc3Cl)n2)(C2CC2)N1 | 130 | 7100 |
| O=C1NC(=O)[C@](CNC(=O)c2cnn(-c3ccc(Cl)c(F)c3)n2)(C2CC2)N1 | 12 | 500 |
| Cc1cccc(-n2ncc(C(=O)NC[C@@]3(C4CC4)NC(=O)NC3=O)n2)c1 | 170 | 2200 |
| O=C1NC(=O)[C@](CNC(=O)c2cnn(-c3nc4ccccc4s3)n2)(C2CC2)N1 | 190 | 11000 |
| Cc1scnc1C1(CNC(=O)c2cnn(-c3ccc(F)cc3)n2)NC(=O)NC1=O (stereo in doubt) | 2 | 200 |
| O=C1NC(=O)C(CNC(=O)c2cnn(-c3ccc(F)cc3)n2)(CC2CC2)N1 (racemic) | 240 | 50000 |
| O=C1NC(=O)C(CNC(=O)c2cnn(-c3ccc(F)cc3)n2)(c2nccs2)N1 (racemic) | 39 | 2400 |
| O=C1NC(=O)[C@](CNC(=O)c2cnn(-c3ccc(F)c(Cl)c3)n2)(C2CC2)N1 | 5 | 250 |

| SMILES | IC50 [1] [nM] | IC50 [2] [nM] |
| --- | --- | --- |
| O=C1NC(=O)[C@](CNC(=O)c2cnn(-c3cccc(F)c3)n2)(C2CC2)N1 | 13 | 580 |
| O=C1NC(=O)C(CNC(=O)c2cnn(-c3ccc(F)cc3)n2)(c2cccnc2)N1 (racemic) | 30 | 4500 |
| CC(C)(C)C1(CNC(=O)c2cnn(-c3ccccc3)n2)NC(=O)NC1=O (racemic) | 70 | 15000 |
| O=C1NC(=O)C(CNC(=O)c2cnn(-c3ccc(F)cc3)n2)(CC2CC2)N1 (stereo in doubt) | 130 | 6200 |
| Cc1ccccc1-n1ncc(C(=O)NC[C@@]2(C3CC3)NC(=O)NC2=O)n1 | 980 | 12000 |
| O=C1NC(=O)C(CNC(=O)c2cnn(-c3ccc(F)cc3)n2)(c2ccnn2C(F)F)N1 (single isomer, unassigned; atropisomer) | 18 | 1700 |
| O=C1NC(=O)C(CNC(=O)c2cnn(-c3ccc(F)cc3)n2)(c2ccnn2CC(F)(F)F)N1 (racemic) | 50 | 3200 |
| O=C1NC(=O)C(CNC(=O)c2cnn(-c3ccc(F)cc3)n2)(c2ccccc2)N1 (racemic) | 69 | > 50000 |
| O=C1NC(=O)C(CNC(=O)c2cnn(-c3ccc(Cl)cc3)n2)(C2CCC2)N1 (stereo unspecified) | 10 | 980 |
| CCCC1(CNC(=O)c2cnn(-c3ccc(F)cc3)n2)NC(=O)NC1=O (racemic) | 170 | 19000 |
| O=C1NC(=O)[C@](CNC(=O)c2cnn(-c3cnsc3)n2)(C2CC2)N1 | 230 | 7400 |
| O=C1NC(=O)C(CNC(=O)c2cnn(-c3ccccc3)n2)(c2ccccn2)N1 (stereo in doubt) | 10 | 2800 |
| O=C1NC(=O)C(CNC(=O)c2cnn(-c3ccc(F)cc3)n2)(c2ncsc2C(F)(F)F)N1 (racemic) | 48 | 6600 |
| CC(C)C1(CNC(=O)c2cnn(-c3cccc(F)c3)n2)NC(=O)NC1=O (stereo in doubt) | 13 | 2300 |
| O=C1NC(=O)C(CNC(=O)c2cnn(-c3ccc(F)cc3)n2)(c2ccccn2)N1 (stereo in doubt; form 2) | 590 | 50000 |
| O=C1NC(=O)[C@](CNC(=O)c2cnn(-c3ccc(Cl)cc3)n2)(C2CC2)N1 | 26 | 480 |
| Cc1ncsc1C1(CNC(=O)c2cnn(-c3ccc(F)cc3)n2)NC(=O)NC1=O (racemic) | 37 | 2500 |
| Cc1nc(C2(CNC(=O)c3cnn(-c4ccc(F)cc4)n3)NC(=O)NC2=O)c(C)s1 (racemic) | 100 | 2800 |
| C[C@@H](NC(=O)c1cnn(-c2ccccc2)n1)C1(C2CC2)NC(=O)NC1=O (stereo partly specified) | 710 | 50000 |
| CC(C)C1(CNC(=O)c2cnn(-c3ccc(Cl)c(F)c3)n2)NC(=O)NC1=O (stereo in doubt) | 7 | 1000 |
| CCCC1(CNC(=O)c2cnn(-c3ccccc3)n2)NC(=O)NC1=O (racemic) | 240 | 19000 |
| Cn1ccnc1C1(CNC(=O)c2cnn(-c3ccccc3)n2)NC(=O)NC1=O (stereo in doubt) |  | 320 |
| O=C1NC(=O)C(CNC(=O)c2cnn(-c3ccc(F)cc3)n2)(c2ccccn2)N1 (stereo in doubt; form 1) |  | 1900 |
| CC(C)C1(CNC(=O)c2cnn(-c3ccc(F)cc3F)n2)NC(=O)NC1=O (stereo in doubt) |  | 13000 |
